Reference: patent publication US12059416B2, “Combinations of a H3 antagonist and a noradrenaline reuptake inhibitor, and the therapeutical uses thereof” (BIOPROJET, priority 2018, dated 2024)
Counter-ions that a name gives are not always drawn.

Legend:
[1] = tested on: noradrenaline release in the prefrontal cortex; test: Noradrenaline release in the prefrontal cortex, in vivo microdialysis; details: rat prefrontal cortex, oral gavage, maximal increase recorded over 150 min post dosing, mean ± SEM
Text: Effects on noradrenaline release in the prefrontal cortex were investigated in vivo by microdialysis in vigil male Wistar rats as described by AD Medhurst et al. (J. Pharmacol. Exp. Ther. 2007, 321, 1032-1045) and G. Flik et al. (J. Mol. Neurosci. 2015, 56, 320-328). Briefly, anaesthetized rats were implanted with a guide cannulae for sampling in the prefrontal cortex. After at least one week of recovery post-surgery, the microdialysis probe was inserted in the guide cannulae and perfused continuously with artificial cerebrospinal fluid (CSF). The rat was habituated to the microdialysis cage for ˜3 hours. Then, rats received orally (gavage) vehicle, drug or drug combination. CSF samples collected every 30 minutes were analysed for their noradrenaline content by HPLC coupled to a electrochemical detection. Noradrenaline sample levels were expressed in percentage of basal noradrenaline release recorded over 1.5 hour before vehicle or drug treatment.

[2] = tested on: male Wistar rats; test: Effect on sleep/wake (EEG telemetry) in rats; assay type: in vivo, rat; details: oral gavage, over 12 hours
Method: Effects on sleep/wake parameters were investigated in male Wistar rats. Briefly, rats were stereotaxically implanted with cortical electrodes for electroencephalogram (EEG) recording using a telemetric system (Data Sciences Int., Saint Paul, MN, USA) for the acquisition, transfer and storage of motor activity and EEG signals. EEG signals were analysed according to a procedure adapted from the algorithm proposed by R. P. Louis et al. (J. Neurosci. Methods, 2004, 133, 71-80) and the analysis of vigilance stages according to H. Kleinlogel (Neuropsychobiol. 1990-91, 23, 197-204) after a fast Fourier transformation of 8-second duration EEG epochs. This allows the determination for each epoch of its vigilance stage (i.e. active wakefulness, quiet wakefulness, light or deep slow wave sleeps and REM sleep also named paradoxical sleep). Rats received orally (gavage) vehicle, drug or drug combination around 30 minutes before the light onset. Then, EEG signals were continuously recorded and further integrated over the 12-hour diurnal phase.
Effects on sleep/wake recorded in rats of drugs alone or combined are presented in the FIG. 1 (Pitolisant/duloxetine), FIG. 2 (BP1.3656B/duloxetine), FIG. 3 (pitolisant/reboxetine) and FIG. 4 (pitolisant/atomoxetine): […]

Structure (SMILES) | Maximal increase (% of basal noradrenaline release) [1] | decrease in the REM sleep [2]
Clc1ccc(CCCOCCCN2CCCCC2)cc1 [pitolisant, monohydrochloride salt of 1-{3-[3-(4-chlorophenyl)propoxy]propyl}piperidine] | +148 ± 49% | does not have any significant effect
CNCC[C@H](Oc1cccc2ccccc12)c1cccs1 [duloxetine] | +113 ± 31% | −23%
